Test results reported in US11298412B2, “Sphingoid compounds for prophylaxis and/or therapy of coronaviridae infection” (priority 2020, dated 2022).
“Also recorded” adds a separate entry of the source.

How the values were obtained:
pp-VSV-SARS-CoV-2 = assay: Adhesion of pp-VSV-SARS-CoV-2 on Vero cells, flow cytometry with anti-spike S1; format: cell-based; conditions: 20 minutes infection in presence of lipid
[1] = tested on: lymphocytic choriomeningitis virus (LCMV); format: cell-based, LCMV strain WE; conditions: 24 hours
recombinant ACE2 = target: T1, recombinant ACE2 (Homo sapiens, UniProt Q9BYF1); assay: Binding of lipids to immobilized recombinant ACE2; conditions: sphingosine at 2 μM
T1 construct: purchased Abcam ab273687

[2] = tested on: lymphocytic choriomeningitis virus (LCMV); format: cell-based, LCMV strain WE
[3] = tested on: vesicular stomatitis virus (VSV); format: cell-based, VSV strain Indiana; conditions: 24 hours

T1 sequence (Q9BYF1 18-805): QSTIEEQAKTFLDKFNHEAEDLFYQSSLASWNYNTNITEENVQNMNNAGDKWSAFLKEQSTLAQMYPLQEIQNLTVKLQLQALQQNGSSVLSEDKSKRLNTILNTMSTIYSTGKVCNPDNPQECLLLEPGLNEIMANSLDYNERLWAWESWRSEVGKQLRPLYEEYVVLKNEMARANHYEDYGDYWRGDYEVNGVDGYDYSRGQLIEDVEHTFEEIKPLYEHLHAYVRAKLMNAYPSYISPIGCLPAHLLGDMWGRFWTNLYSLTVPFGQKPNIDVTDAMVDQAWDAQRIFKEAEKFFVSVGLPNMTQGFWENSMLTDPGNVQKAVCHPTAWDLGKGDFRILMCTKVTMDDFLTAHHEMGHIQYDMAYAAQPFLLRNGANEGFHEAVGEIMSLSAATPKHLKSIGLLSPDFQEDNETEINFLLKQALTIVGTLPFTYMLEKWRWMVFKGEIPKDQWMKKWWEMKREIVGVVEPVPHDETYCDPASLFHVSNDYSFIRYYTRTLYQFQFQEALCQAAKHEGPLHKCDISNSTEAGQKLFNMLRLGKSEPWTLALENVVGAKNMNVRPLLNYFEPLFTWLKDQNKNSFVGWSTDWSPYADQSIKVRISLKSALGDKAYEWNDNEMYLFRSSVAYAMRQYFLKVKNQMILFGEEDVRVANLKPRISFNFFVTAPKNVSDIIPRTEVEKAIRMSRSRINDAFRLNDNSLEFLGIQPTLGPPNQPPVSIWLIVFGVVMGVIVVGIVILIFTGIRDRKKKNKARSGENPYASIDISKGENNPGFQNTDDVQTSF

Q: How did the “binding of pp-VSV-SARS-CoV-2 to the cell surface” value (“binding … to the cell surface” for short) (pp-VSV-SARS-CoV-2) turn out when lactosyl-ceramide was run?
A: Its value is “None of the other lipids had an effect”.

Q: `Oc1ccc(Nc2nc(-c3ccc(Cl)cc3)cs2)cc1` [SKII, [2-(p-hydroxyanilino)-4-(p-chlorophenyl)thiazole]] was tested. Which “spreading of the virus (LCMV-infected cells)” value [1] did it give?
A: Its value is “inhibits spreading of the virus; also recorded: inhibits the spreading of the virus”.

Q: What does the source list for `CCCCCCCCCCCCC/C=C/[C@@H](O)[C@@H](N)COP(=O)(O)O` [sphingosine 1-phosphate]?
A: binding of lipid to immobilized recombinant ACE2 (beads) (recombinant ACE2): showed no interation with the beads; binding of pp-VSV-SARS-CoV-2 to the cell surface (pp-VSV-SARS-CoV-2): None of the other lipids had an effect

Q: sphingomyelinase was tested. Which “propagation of LCMV (infectious LCMV particles in the supernatant)” value [2] did it give?
A: Its value is “reduced propagation of LCMV; also recorded: inhibits the propagation of LCMV”.

Q: And the “propagation of VSV (number of plaques)” value [3]?
A: The value was “inhibits the propagation of VSV”.

Q: For ceramide, which “binding of lipid to immobilized recombinant ACE2 (beads)” value (“binding of lipid” below) (recombinant ACE2) is on record?
A: Its value is “showed no interation with the beads”.

Q: Which “binding of lipid” value (recombinant ACE2) does the source give for phosphatidyl-ethanolamine here?
A: The value was “showed no interation with the beads”.

Q: What does the source list for sphingomyelin?
A: binding of lipid to immobilized recombinant ACE2 (beads) (recombinant ACE2): showed no interation with the beads; binding of pp-VSV-SARS-CoV-2 to the cell surface (pp-VSV-SARS-CoV-2): None of the other lipids had an effect

Q: With `CCCCCCCCCCCCC/C=C/[C@@H](O)[C@H](CO)NC(=O)CCCCCCCCCCCCCCC` [C16-ceramide] as the compound, how does the “binding … to the cell surface” value (pp-VSV-SARS-CoV-2) read?
A: Its value is “None of the other lipids had an effect”.

Q: phosphatidylcholine was tested. Which “binding of lipid” value (recombinant ACE2) did it give?
A: The value was “showed no interation with the beads”.

Q: And the “binding … to the cell surface” value (pp-VSV-SARS-CoV-2)?
A: Its value is “None of the other lipids had an effect”.

Q: cardiolipin was tested. Which “binding of lipid” value (recombinant ACE2) did it give?
A: Its value is “showed no interation with the beads”.

Q: And the “binding … to the cell surface” value (pp-VSV-SARS-CoV-2)?
A: The value was “None of the other lipids had an effect”.
